In patent EP3375430A1, “FRAGRANCE COMPOSITIONS” (Takasago International Corporation, priority 2017, dated 2018):

Tests used:
[1] = Headspace concentration of fragrance ingredients over blotter (thermal desorption GC-MS); type: physicochemical; settings: fragrance TAK; after 1 hour; both control EdT1 and composition C1; Figure 2
Procedure: The headspace concentration of individual ingredients of fragrance TAK, as formulated in either a conventional EdT (EdT1) or a fragrance composition of the invention (C1), was assessed by the method described below.
A 10 cm length was cut from a standard perfumers' blotter. A sample of 100µL volume was applied to the upper surface of the blotter with a syringe. The blotter was placed on a hot plate thermostatted at 32°C and left to equilibrate for 5 minutes. Two desorption tubes (6cm length 4mm internal diameter) each containing 2 cm length of Tenax TA adsorbent were fitted to the glass part of a headspace apparatus shown in figure 9. The glass part was fitted over the blotter, a metering pump was connected to one of the desorption tubes and air was drawn through the apparatus flushing the headspace over the blotter at a rate of 17mL/min. Sampling continued for about 16.5 minutes until 280mL of air had been extracted. Then the outlet desorption tube was analysed by gas chromatography as described below. The glass part was removed from the blotter which was left on the hotplate until the next sampling time when two fresh desorption tubes were fitted and the extraction procedure repeated for a further 280mL of extracted headspace.
• Initial Temp: 50°C • Initial Time: 5 min • Rate: 3°C /min • Final Temp: 250°C • Final Time: 20 min • Run Time: 91.67 min
• Column: HP-5MS 30m * 0.25mm * 0.25µm • Gas: Helium • Constant pressure 12.675 psi
• Initial Temp: -30°C • Equilibration Time: 0.05 min • Initial Time: 0.00 min • Rate 12°C / min • End Temp: 260°C • Hold Time: 10 min
Temperature program • Initial Temp: 35°C • Delay Time: 0.30 min • Initial Time: 0.00 min • Rate: 30°C / min • End Temp: 250°C • Hold Time: 5.00 min
TDU Settings • Transfer Temp: 250°C • Transfer Temp Mode: Fixed • Desorption Mode: splitless • Sample mode: Retain tube - standby cooling • Standby Temp: 50°C
Detector MS • MS 5973 • Mass range: 35 to 350 • Threshold: 150 • Mass Quad: 150°C • Mass Source: 230°C
Following the procedure of example 2, the headspace concentration of representative ingredients of fragrance COM1 was determined. COM1 was dosed at 5 and 20 % either in control EdT3 and EdT4 or in compositions of the invention C7 and C8, as shown in table 10.
The headspace concentration of individual ingredients of fragrance TAK (see Table 1), as formulated in either a conventional EdT (EdT1) or fragrance compositions of the invention (C14, C15), was assessed by the method described in example 2.

[2] = Amount of fragrance ingredients retained on paper blotter after evaporation (ethanol extraction, GC-MS); type: physicochemical
Procedure: A fragrance (hereafter fragrance TAK, the formulation of which is shown in table 1) was formulated in a typical Eau de Toilette (EdT1) or in fragrance compositions according to the invention (compositions C1 to C4), as shown in table 2. The amount of individual fragrance ingredients retained on paper substrate (blotter) after set time periods was assessed by the following method.
100µL samples of either EdT1 or compositions C1 to C4 were applied to 4.5cm long standard paper blotters with a microsyringe. Three replicate blotters were prepared for each extraction time. After the appropriate evaporation time each of the 3 blotters was transferred to a 30mL glass bottle. 3mL of ethanol and 50µL of a 1% solution of methyl decanoate in ethanol as an internal standard were added. The bottle was sealed and placed on a roller bed to extract the blotter for 1 hour. A sample of the extracting solution was transferred to a vial which was sealed and analysed by gas chromatography (GC 6890) with a Mass Spectrometer detector (MS 5973) using the method described below. The results of the three replicate measurements were averaged. At exact times the same extraction was repeated on the remaining blotters which were stored on a warm surface at 32°C open to the air to allow evaporation. The gas chromatography conditions were as given below.
• Initial Temp: 50°C • Initial Time: 2 min • Rate: 10°C /min • Final Temp: 280°C • Final Time: 5 min • Run Time: 30 min
• Column: HP-5MS 30m * 0.25mm * 0.25µm • Gas: Helium • Constant Pressure 18.55 psi
• Split mode Ratio 40:1 • Inlet Temp: 250°C
• MS 5973 • Mass range: 35 to 350 • Threshold: 100 • Mass Quad: 150°C • Mass Source: 230°C
To simplify the results the average amount of each fragrance ingredient from the 3 samples measured at time zero was set at 100% and all other measurements were then related to that value so tables 3 to 6 show decreasing amounts of fragrance ingredients as a percentage of the initial amount.
The method of example 1 was repeated using a commercial fragrance (hereafter fragrance COM1, the formulation of which is given in table 7) formulated in a typical Eau de Toilette (EdT2) or in fragrance compositions according to the invention (compositions C5 and C6), as shown in table 8.

headspace presence of ingredient [1]: lost
amount of fragrance ingredient retained on blotter (percentage of the initial amount) ([2]; Table 3, fragrance TAK in C1, 15 min, 32°C): 41%
amount of fragrance ingredient retained on blotter (percentage of the initial amount) ([2]; Table 3, fragrance TAK in C1, 60 min, 32°C): 5%
amount of fragrance ingredient retained on blotter (percentage of the initial amount) ([2]; Table 3, fragrance TAK in C1, 120 min, 32°C): 2%
amount of fragrance ingredient retained on blotter (percentage of the initial amount) ([2]; Table 3, fragrance TAK in C1, 240 min, 32°C): 2%
amount of fragrance ingredient retained on blotter (percentage of the initial amount) ([2]; Table 3, fragrance TAK in C1, 480 min, 32°C): 2%
amount of fragrance ingredient retained on blotter (percentage of the initial amount) ([2]; Table 3, fragrance TAK in EdT1, 15 min, 32°C): 13%
amount of fragrance ingredient retained on blotter (percentage of the initial amount) ([2]; Table 3, fragrance TAK in EdT1, 60 min, 32°C): 2%
amount of fragrance ingredient retained on blotter (percentage of the initial amount) ([2]; Table 3, fragrance TAK in EdT1, 120 min, 32°C): 2%
amount of fragrance ingredient retained on blotter (percentage of the initial amount) ([2]; Table 3, fragrance TAK in EdT1, 240 min, 32°C): 1%
amount of fragrance ingredient retained on blotter (percentage of the initial amount) ([2]; Table 3, fragrance TAK in EdT1, 480 min, 32°C): <1%
amount of fragrance ingredient retained on blotter (percentage of the initial amount) ([2]; Table 3, fragrance TAK in EdT1 or C1, T0, set at 100% (normalisation)): 100%
amount of fragrance ingredient retained on blotter (percentage of the initial amount) ([2]; Table 4, fragrance TAK in C2, 15 min, 32°C): 54%
amount of fragrance ingredient retained on blotter (percentage of the initial amount) ([2]; Table 4, fragrance TAK in C2, 480 min, 32°C): <1%
amount of fragrance ingredient retained on blotter (percentage of the initial amount) ([2]; Table 4, fragrance TAK in EdT1, 15 min, 32°C): 15%
amount of fragrance ingredient retained on blotter (percentage of the initial amount) ([2]; Table 4, fragrance TAK in EdT1, 480 min, 32°C): 6%
amount of fragrance ingredient retained on blotter (percentage of the initial amount) ([2]; Table 4, fragrance TAK in EdT1 or C2, T0, set at 100% (normalisation)): 100%
amount of fragrance ingredient retained on blotter (percentage of the initial amount) ([2]; Table 5, fragrance TAK in C3, 15 min, 32°C): 43%
amount of fragrance ingredient retained on blotter (percentage of the initial amount) ([2]; Table 5, fragrance TAK in C3, 60 min, 32°C): 5%
amount of fragrance ingredient retained on blotter (percentage of the initial amount) ([2]; Table 5, fragrance TAK in C3, 120 min, 32°C): 2%
amount of fragrance ingredient retained on blotter (percentage of the initial amount) ([2]; Table 5, fragrance TAK in C3, 240 min, 32°C): 2%
amount of fragrance ingredient retained on blotter (percentage of the initial amount) ([2]; Table 5, fragrance TAK in C3, 480 min, 32°C): 2%
amount of fragrance ingredient retained on blotter (percentage of the initial amount) ([2]; Table 5, fragrance TAK in C3, 1440 min, 32°C): 2%
amount of fragrance ingredient retained on blotter (percentage of the initial amount) ([2]; Table 5, fragrance TAK in EdT1, 15 min, 32°C): 13%
amount of fragrance ingredient retained on blotter (percentage of the initial amount) ([2]; Table 5, fragrance TAK in EdT1, 60 min, 32°C): 2%
amount of fragrance ingredient retained on blotter (percentage of the initial amount) ([2]; Table 5, fragrance TAK in EdT1, 120 min, 32°C): 2%
amount of fragrance ingredient retained on blotter (percentage of the initial amount) ([2]; Table 5, fragrance TAK in EdT1, 240 min, 32°C): 1%
amount of fragrance ingredient retained on blotter (percentage of the initial amount) ([2]; Table 5, fragrance TAK in EdT1, 480 min, 32°C): <1%
amount of fragrance ingredient retained on blotter (percentage of the initial amount) ([2]; Table 5, fragrance TAK in EdT1, 1440 min, 32°C): <1%
amount of fragrance ingredient retained on blotter (percentage of the initial amount) ([2]; Table 5, fragrance TAK in EdT1 or C3, T0, set at 100% (normalisation)): 100%
amount of fragrance ingredient retained on blotter (percentage of the initial amount) ([2]; Table 6, fragrance TAK in C4, 15 min, 32°C): 41%
amount of fragrance ingredient retained on blotter (percentage of the initial amount) ([2]; Table 6, fragrance TAK in C4, 60 min, 32°C): 5%
amount of fragrance ingredient retained on blotter (percentage of the initial amount) ([2]; Table 6, fragrance TAK in C4, 120 min, 32°C): 5%
amount of fragrance ingredient retained on blotter (percentage of the initial amount) ([2]; Table 6, fragrance TAK in C4, 240 min, 32°C): 4%
amount of fragrance ingredient retained on blotter (percentage of the initial amount) ([2]; Table 6, fragrance TAK in C4, 480 min, 32°C): 3%
amount of fragrance ingredient retained on blotter (percentage of the initial amount) ([2]; Table 6, fragrance TAK in EdT1, 15 min, 32°C): 13%
amount of fragrance ingredient retained on blotter (percentage of the initial amount) ([2]; Table 6, fragrance TAK in EdT1, 60 min, 32°C): 2%
amount of fragrance ingredient retained on blotter (percentage of the initial amount) ([2]; Table 6, fragrance TAK in EdT1, 120 min, 32°C): 2%
amount of fragrance ingredient retained on blotter (percentage of the initial amount) ([2]; Table 6, fragrance TAK in EdT1, 240 min, 32°C): 1%
amount of fragrance ingredient retained on blotter (percentage of the initial amount) ([2]; Table 6, fragrance TAK in EdT1, 480 min, 32°C): <1%
amount of fragrance ingredient retained on blotter (percentage of the initial amount) ([2]; Table 6, fragrance TAK in EdT1 or C4, T0, set at 100% (normalisation)): 100%
Structure (SMILES): CCCCCCOC(C)=O [Hexyl acetate, Hexyl Acetate]
